Results on 20 compounds are retold here after patent US20230143612A1 (Arbutus Biopharma Corporation, priority 2020, published 2023).

PD-L1 His protein / PD-1 Fc protein, sequence (Q9NZQ7 19-238 limits assumed): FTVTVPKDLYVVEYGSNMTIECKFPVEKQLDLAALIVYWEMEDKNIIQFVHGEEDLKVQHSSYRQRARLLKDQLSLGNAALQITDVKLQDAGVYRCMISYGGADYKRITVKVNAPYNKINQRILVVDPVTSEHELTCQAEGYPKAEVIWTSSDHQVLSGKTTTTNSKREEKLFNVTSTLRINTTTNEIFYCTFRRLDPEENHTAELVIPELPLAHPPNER

This experiment addresses PD-L1 His protein / PD-1 Fc protein (Homo sapiens, UniProt Q9NZQ7). Briefly: HTRF Assay (PD-1/PD-L1 interaction). The settings on record: PD-L1 His 6 nM, PD-1 Fc 6 nM. Type of experiment: binding. The procedure, abridged:
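HTRF: PD-L1 His (6 nM final), compound (3-fold dilutions, 20 μM to 0.001 μM final) and PD-1 Fc (6 nM final) preincubated 15 min at room temperature. Anti-human IgG-XL665 and anti-6HIS Tb cryptate (mixed at 6.7 nM and 0.35 nM) then added for 1 h at room temperature before reading.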
Background: In TR-FRET formats the signal depends on donor and acceptor labels being close together.
Broadly, the IC50 is the concentration needed to halve the response being measured. Read a high IC50 as weaker potency. In turn, `COc1nc(-c2cccc(-c3cccc(-c4ccn5c(=O)c(CN6CC(C(=O)O)C6)cnc5c4)c3Cl)c2Cl)cnc1CNC[C@@H]1CCC(=O)N1` [Example 117, (S)-1-((8-(2,2′-Dichloro-3′-(6-methoxy-5-((((5-oxopyrrolidin-2-yl)methyl)amino)methyl)pyrazin-2-yl)-[1,1′-biphenyl]-3-yl)-4-oxo-4H-pyrido[1,2-a]pyrimidin-3-yl)methyl)azetidine-3-carboxylic acid] registered an IC50 of 0.4 nM.

`COc1nc(-c2cccc(-c3cccc(-c4ccn5c(=O)c(CNC[C@@H]6CCC(=O)N6)cnc5c4)c3Cl)c2Cl)ccc1CN1CC[C@H](C(=O)O)C1` [Example 118, (S)-1-((6-(2,2′-Dichloro-3′-(4-oxo-3-(((((S)-5-oxopyrrolidin-2-yl)methyl)amino)methyl)-4H-pyrido[1,2-a]pyrimidin-8-yl)-[1,1′-biphenyl]-3-yl)-2-methoxypyridin-3-yl)methyl)pyrrolidine-3-carboxylic acid]: the IC50 amounted to 0.2 nM. This IC50 is about 2-fold lower than that of the compound before.

As for `COc1nc(-c2cccc(-c3cccc(-c4ccn5c(=O)c(CNC[C@@H]6CCC(=O)N6)cnc5c4)c3Cl)c2Cl)ccc1CN1CC(C(=O)O)C1` [Example 119, (S)-1-((6-(2,2′-Dichloro-3′-(4-oxo-3-((((5-oxopyrrolidin-2-yl)methyl)amino)methyl)-4H-pyrido[1,2-a]pyrimidin-8-yl)-[1,1′-biphenyl]-3-yl)-2-methoxypyridin-3-yl)methyl)azetidine-3-carboxylic acid], the 50% inhibitory concentration (IC50) turned out to be 0.3 nM.

The compound `COc1nc(-c2cccc(-c3cccc(-c4ccn5c(=O)c(CNC6(C(=O)O)CC6)cnc5c4)c3Cl)c2Cl)ccc1CNC[C@@H]1CCC(=O)N1` [Example 120, (S)-1-(((8-(2,2′-Dichloro-3′-(6-methoxy-5-((((5-oxopyrrolidin-2-yl)methyl)amino)methyl)-pyridin-2-yl)-[1,1′-biphenyl]-3-yl)-4-oxo-4H-pyrido[1,2-a]pyrimidin-3-yl)methyl)amino)-cyclopropane-1-carboxylic acid] showed an IC50 of 0.4 nM.

For the compound `COC(=O)C12CCC(CC1)N(Cc1ccc(-c3cccc(-c4cccc(-c5ccn6c(=O)c(CNC[C@@H]7CCC(=O)N7)cnc6c5)c4Cl)c3Cl)nc1OC)C2` [Example 121, Methyl (S)-2-((6-(2,2′-dichloro-3′-(4-oxo-3-((((5-oxopyrrolidin-2-yl)methyl)amino)methyl)-4H-pyrido[1,2-a]pyrimidin-8-yl)-[1,1′-biphenyl]-3-yl)-2-methoxypyridin-3-yl)methyl)-2-azabicyclo[2.2.2]octane-4-carboxylate], the IC50 amounted to 1 nM. This IC50 lies about 2.5-fold higher than the previous one.

In the case of `COc1nc(-c2cccc(-c3cccc(-c4ccn5c(=O)c(CNC[C@@H]6CCC(=O)N6)cnc5c4)c3Cl)c2Cl)ccc1CN1CC2(C(=O)O)CCC1CC2` [Example 122, (S)-2-((6-(2,2′-Dichloro-3′-(4-oxo-3-((((5-oxopyrrolidin-2-yl)methyl)amino)methyl)-4H-pyrido[1,2-a]pyrimidin-8-yl)-[1,1′-biphenyl]-3-yl)-2-methoxypyridin-3-yl)methyl)-2-azabicyclo[2.2.2]octane-4-carboxylic acid], inhibition was half-maximal at 0.8 nM (IC50). This IC50 and that of the compound before are within 1.5-fold of each other.

For `COc1nc(-c2cccc(-c3cccc(-c4cnc5c(Cl)c(CNC[C@@H]6CCC(=O)N6)sc5c4)c3Cl)c2Cl)ccc1CNC[C@@H]1CCC(=O)N1` [Example 123, (S)-5-((((3-Chloro-6-(2,2′-dichloro-3′-(6-methoxy-5-(((((S)-5-oxopyrrolidin-2-yl)methyl)amino)methyl)pyridin-2-yl)-[1,1′-biphenyl]-3-yl)thieno[3,2-b]pyridin-2-yl)methyl)amino)methyl)pyrrolidin-2-one], the IC50 is 0.2 nM.

The compound `COC(=O)CNCc1ccc(-c2cccc(-c3cccc(-c4ccn5c(=O)c(CNC[C@@H]6CCC(=O)N6)cnc5c4)c3Cl)c2Cl)nc1OC` [Example 124, Methyl (S)-((6-(2,2′-dichloro-3′-(4-oxo-3-((((5-oxopyrrolidin-2-yl)methyl)amino)methyl)-4H-pyrido[1,2-a]pyrimidin-8-yl)-[1,1′-biphenyl]-3-yl)-2-methoxypyridin-3-yl)methyl)glycinate] showed an IC50 of 3.8 nM. Against the preceding compound, the IC50 is about 19-fold higher.

`COc1nc(-c2cccc(-c3cccc(-c4ccn5c(=O)c(CNC[C@@H]6CCC(=O)N6)cnc5c4)c3Cl)c2Cl)ccc1CNCC(=O)O` [Example 125, (S)-((6-(2,2′-Dichloro-3′-(4-oxo-3-((((5-oxopyrrolidin-2-yl)methyl)amino)methyl)-4H-pyrido[1,2-a]pyrimidin-8-yl)-[1,1′-biphenyl]-3-yl)-2-methoxypyridin-3-yl)methyl)glycine] gave an IC50 of 0.7 nM.

On to `COc1nc(-c2cccc(-c3cccc(-c4ccn5c(=O)c(CNC[C@@H](O)CC(=O)O)cnc5c4)c3Cl)c2Cl)ccc1CNC[C@@H]1CCC(=O)N1` [Example 126, (S)-4-(((8-(2,2′-Dichloro-3′-(6-methoxy-5-(((((S)-5-oxopyrrolidin-2-yl)methyl)amino)methyl)pyridin-2-yl)-[1,1′-biphenyl]-3-yl)-4-oxo-4H-pyrido[1,2-a]pyrimidin-3-yl)methyl)amino)-3-hydroxybutanoic acid], for which the IC50 was found to be 0.4 nM.

In the case of `COc1nc(-c2cccc(-c3cccc(-c4ccn5c(=O)c(CN6CC7(C(=O)O)CCC6CC7)cnc5c4)c3Cl)c2Cl)ccc1CNC[C@@H]1CCC(=O)N1` [Example 127, (S)-2-((8-(2,2′-Dichloro-3′-(6-methoxy-5-((((5-oxopyrrolidin-2-yl)methyl)amino)methyl)pyridin-2-yl)-[1,1′-biphenyl]-3-yl)-4-oxo-4H-pyrido[1,2-a]pyrimidin-3-yl)methyl)-2-azabicyclo[2.2.2]octane-4-carboxylic acid], the IC50 was 0.3 nM.

In turn, `COc1nc(-c2cccc(-c3cccc(-c4ccn5c(=O)c(CN6CCC[C@H]6C(=O)O)cnc5c4)c3Cl)c2Cl)ccc1CNC[C@@H]1CCC(=O)N1` [Example 128, ((8-(2,2′-Dichloro-3′-(6-methoxy-5-(((((S)-5-oxopyrrolidin-2-yl)methyl)amino)methyl)pyridin-2-yl)-[1,1′-biphenyl]-3-yl)-4-oxo-4H-pyrido[1,2-a]pyrimidin-3-yl)methyl)-L-proline] yielded an IC50 of 0.2 nM.

`COc1nc(-c2cccc(-c3cccc(-c4ccn5c(=O)c(CN6CCCC[C@H]6C(=O)O)cnc5c4)c3Cl)c2Cl)ccc1CNC[C@@H]1CCC(=O)N1` [Example 129, (S)-1-((8-(2,2′-Dichloro-3′-(6-methoxy-5-(((((S)-5-oxopyrrolidin-2-yl)methyl)amino)methyl)pyridin-2-yl)-[1,1′-biphenyl]-3-yl)-4-oxo-4H-pyrido[1,2-a]pyrimidin-3-yl)methyl)piperidine-2-carboxylic acid] yielded a concentration for half-maximal inhibition (IC50) of 0.3 nM. The IC50 values of the last two compounds are within 1.5-fold of each other.

`COc1nc(-c2cccc(-c3cccc(-c4ccn5c(=O)c(CN6CCC[C@H](C(=O)O)C6)cnc5c4)c3Cl)c2Cl)ccc1CNC[C@@H]1CCC(=O)N1` [Example 130, (S)-1-((8-(2,2′-Dichloro-3′-(6-methoxy-5-(((((S)-5-oxopyrrolidin-2-yl)methyl)amino)methyl)pyridin-2-yl)-[1,1′-biphenyl]-3-yl)-4-oxo-4H-pyrido[1,2-a]pyrimidin-3-yl)methyl)piperidine-3-carboxylic acid] came in with an IC50 of 0.3 nM. This lies in the sub-nanomolar range.

The compound `COc1nc(-c2cccc(-c3cccc(-c4ccn5c(=O)c(CNC[C@H](C)O)cnc5c4)c3Cl)c2Cl)ccc1CNC[C@@H]1CCC(=O)N1` [Example 131, 8-(2,2′-dichloro-3′-(6-methoxy-5-(((((S)-5-oxopyrrolidin-2-yl)methyl)amino)methyl)pyridin-2-yl)-[1,1′-biphenyl]-3-yl)-3-((((S)-2-hydroxypropyl)amino)methyl)-4H-pyrido[1,2-a]pyrimidin-4-one] came in with an IC50 of 1.7 nM.

Take `COc1nc(-c2cccc(-c3cccc(-c4ccn5c(=O)c(CNC[C@@H](C)O)cnc5c4)c3Cl)c2Cl)ccc1CNC[C@@H]1CCC(=O)N1` [Example 132, 8-(2,2′-Dichloro-3′-(6-methoxy-5-(((((S)-5-oxopyrrolidin-2-yl)methyl)amino)methyl)pyridin-2-yl)-[1,1′-biphenyl]-3-yl)-3-((((R)-2-hydroxypropyl)amino)methyl)-4H-pyrido[1,2-a]pyrimidin-4-one]: 1.7 nM corresponded to half-maximal inhibition (IC50).

In the case of `COc1nc(-c2cccc(-c3cccc(-c4ccn5c(=O)c(CNCC(C)(C)O)cnc5c4)c3Cl)c2Cl)ccc1CNC[C@@H]1CCC(=O)N1` [Example 133, (S)-8-(2,2′-Dichloro-3′-(6-methoxy-5-((((5-oxopyrrolidin-2-yl)methyl)amino)methyl)pyridin-2-yl)-[1,1′-biphenyl]-3-yl)-3-(((2-hydroxy-2-methylpropyl)amino)methyl)-4H-pyrido[1,2-a]pyrimidin-4-one], the 50% inhibitory concentration (IC50) stood at 1.5 nM.

`COc1nc(-c2cccc(-c3cccc(-c4ccn5c(=O)c(CN6C[C@H](O)C[C@@H]6C(=O)O)cnc5c4)c3Cl)c2Cl)ccc1CNC[C@@H]1CCC(=O)N1` [Example 134, (2R,4R)-1-((8-(2,2′-Dichloro-3′-(6-methoxy-5-(((((S)-5-oxopyrrolidin-2-yl)methyl)amino)methyl)pyridin-2-yl)-[1,1′-biphenyl]-3-yl)-4-oxo-4H-pyrido[1,2-a]pyrimidin-3-yl)methyl)-4-hydroxypyrrolidine-2-carboxylic acid] showed a concentration for half-maximal inhibition (IC50) of 1.1 nM.

In turn, `COc1nc(-c2cccc(-c3cccc(-c4ccn5c(=O)c(CN6CC(CO)C6)cnc5c4)c3Cl)c2Cl)ccc1CN1CC[C@H](C(=O)O)C1` [Example 135, (S)-1-((6-(2,2′-Dichloro-3′-(3-((3-(hydroxymethyl)azetidin-1-yl)methyl)-4-oxo-4H-pyrido[1,2-a]pyrimidin-8-yl)-[1,1′-biphenyl]-3-yl)-2-methoxypyridin-3-yl)methyl)pyrrolidine-3-carboxylic acid] had an IC50 of 0.2 nM.

On to `COc1nc(-c2cccc(-c3cccc(-c4ccn5c(=O)c(CN6CC(CO)C6)cnc5c4)c3Cl)c2Cl)ccc1CN1CC(C(=O)O)C1` [Example 136, 1-((6-(2,2′-Dichloro-3′-(3-((3-(hydroxymethyl)azetidin-1-yl)methyl)-4-oxo-4H-pyrido[1,2-a]pyrimidin-8-yl)-[1,1′-biphenyl]-3-yl)-2-methoxypyridin-3-yl)methyl)azetidine-3-carboxylic acid], for which the IC50 amounted to 0.2 nM.
